From ChEMBL document CHEMBL1126222, “Investigation of conformational specificity at GPIIb/IIIa: evaluation of conformationally constrained RGD peptides” (J Med Chem, 1992)

How the values were obtained:
[1] = biological target: T1, Integrin alpha-IIb/beta-3 (Homo sapiens, UniProt P05106+P08514); test: Inhibition of [3H]Mba-(N-Me)Arg-Gly-Asp-Man binding to GPIIb/IIIa from human platelets reconstituted in liposomes
[2] = biological target: T1, Integrin alpha-IIb/beta-3; test: Inhibition of [3H]Mba-(N-Me)Arg-Gly-Asp-Man binding to fibrinogen receptor of human platelets reconstituted in liposomes
[3] = biological target: T1, Integrin alpha-IIb/beta-3; test: Inhibition of [3H]Mba-(N-Me)Arg-Gly-Asp-Man binding to Fibrinogen Receptor from human platelets reconstituted in liposomes

T1 sequence (P05106 27-788 limits assumed): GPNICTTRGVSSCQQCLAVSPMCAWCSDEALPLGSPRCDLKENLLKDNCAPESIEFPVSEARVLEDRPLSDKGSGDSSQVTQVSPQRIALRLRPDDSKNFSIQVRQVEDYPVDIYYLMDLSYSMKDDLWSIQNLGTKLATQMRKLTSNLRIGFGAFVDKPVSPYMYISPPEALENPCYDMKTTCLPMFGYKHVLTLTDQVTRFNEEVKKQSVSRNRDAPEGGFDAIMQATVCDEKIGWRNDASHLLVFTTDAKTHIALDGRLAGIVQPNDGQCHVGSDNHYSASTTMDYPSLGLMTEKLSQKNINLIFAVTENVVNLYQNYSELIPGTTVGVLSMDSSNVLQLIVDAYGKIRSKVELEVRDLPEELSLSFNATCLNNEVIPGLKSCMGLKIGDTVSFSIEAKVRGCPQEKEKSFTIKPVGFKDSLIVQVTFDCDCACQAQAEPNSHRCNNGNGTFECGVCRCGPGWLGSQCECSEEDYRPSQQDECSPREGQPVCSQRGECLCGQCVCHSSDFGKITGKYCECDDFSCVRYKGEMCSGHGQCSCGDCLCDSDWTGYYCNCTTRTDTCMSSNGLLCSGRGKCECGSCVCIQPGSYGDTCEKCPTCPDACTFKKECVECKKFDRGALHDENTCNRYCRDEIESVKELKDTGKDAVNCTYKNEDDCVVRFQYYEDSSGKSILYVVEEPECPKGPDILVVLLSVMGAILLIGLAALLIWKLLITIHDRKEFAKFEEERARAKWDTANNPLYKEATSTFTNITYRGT
T1 sequence (P08514 32-887 limits assumed): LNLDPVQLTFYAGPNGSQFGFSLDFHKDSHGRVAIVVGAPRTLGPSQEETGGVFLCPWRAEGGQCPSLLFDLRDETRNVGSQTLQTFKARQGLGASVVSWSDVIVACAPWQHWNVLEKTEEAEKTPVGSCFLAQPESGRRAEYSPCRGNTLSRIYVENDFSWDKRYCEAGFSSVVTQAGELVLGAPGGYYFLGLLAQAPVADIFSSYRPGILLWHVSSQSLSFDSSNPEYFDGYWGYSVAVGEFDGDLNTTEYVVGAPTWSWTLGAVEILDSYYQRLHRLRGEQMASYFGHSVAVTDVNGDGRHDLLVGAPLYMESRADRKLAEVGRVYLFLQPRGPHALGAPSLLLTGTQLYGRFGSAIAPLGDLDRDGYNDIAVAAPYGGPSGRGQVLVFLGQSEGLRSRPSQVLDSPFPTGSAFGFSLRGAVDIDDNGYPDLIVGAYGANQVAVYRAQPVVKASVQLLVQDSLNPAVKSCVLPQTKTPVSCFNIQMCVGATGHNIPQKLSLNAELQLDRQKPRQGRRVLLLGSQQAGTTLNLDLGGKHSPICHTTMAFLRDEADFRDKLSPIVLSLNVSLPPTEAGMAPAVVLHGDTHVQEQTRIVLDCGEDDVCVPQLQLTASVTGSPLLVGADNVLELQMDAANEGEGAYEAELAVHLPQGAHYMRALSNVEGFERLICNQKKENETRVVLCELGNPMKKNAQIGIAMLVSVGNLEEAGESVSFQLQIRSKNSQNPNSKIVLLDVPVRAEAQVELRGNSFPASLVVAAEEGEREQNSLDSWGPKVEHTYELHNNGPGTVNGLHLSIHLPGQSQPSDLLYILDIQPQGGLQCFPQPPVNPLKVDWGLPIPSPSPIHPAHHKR
T1 sequence (P08514 891-1039 limits assumed): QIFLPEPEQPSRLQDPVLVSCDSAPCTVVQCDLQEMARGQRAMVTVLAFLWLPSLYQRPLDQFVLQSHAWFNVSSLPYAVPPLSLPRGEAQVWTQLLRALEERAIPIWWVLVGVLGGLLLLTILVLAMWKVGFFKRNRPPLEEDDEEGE

| SMILES | Ki [1] [µM] | Ki [2] [µM] | further results |
| --- | --- | --- | --- |
| N=C(N)NCCC[C@@H]1NC(=O)[C@@H]2CCCN2C(=O)CNC(=O)[C@H]2CCCN2C(=O)[C@H](CC(=O)O)NC(=O)CNC1=O | > 100 | – | – |
| CN(C(=O)c1ccccc1S)[C@@H](CCCNC(=N)N)C(=O)NCC(=O)N[C@@H](CC(=O)O)C(=O)Nc1ccccc1S | – | 0.004 | – |
| CC(=O)N[C@@H](CS)C(=O)N(C)[C@@H](CCCN=C(N)N)C(=O)NCC(=O)N[C@@H](CC(=O)O)C(=O)N[C@H](C(N)=O)C(C)(C)S | – | 0.175 | – |
| CC(=O)N[C@@H](CS)C(=O)N[C@H](CCCN=C(N)N)C(=O)NCC(=O)N[C@@H](CC(=O)O)C(=O)N[C@H](C(N)=O)C(C)(C)S | – | 3.3 | – |
| N=C(N)NCCC[C@@H]1NC(=O)[C@@H]2CCCN2C(=O)[C@@H](Cc2ccccc2)NC(=O)CNC(=O)[C@H](CC(=O)O)NC(=O)CNC1=O | 18.5 | – | – |
| CC(=O)N[C@@H](CS)C(=O)N[C@@H](CCCN=C(N)N)C(=O)NCC(=O)N[C@@H](CC(=O)O)C(=O)NC(C(N)=O)C(C)(C)S (stereo in doubt) | – | – | Ki [3]: 3.13 µM |
